The results in this text go back to publication PMC6161602, “Synthesis and characterisation of (Z)-styrylbenzene derivatives as potential selective anticancer agents” (Journal of Enzyme Inhibition and Medicinal Chemistry, 2018).

Data set [1] has as its system HeLa cervical cancer cell. Kind of data set: MTT cell growth inhibition assay, HeLa. Format: cell-based, human. The settings on record: 48 h incubation. The source says:
(§1) All human cell lines were used in this study. MGC-803 late-stage differentiation gastric cancer cell, A549 lung cancer cell, HepG2 hepatoma cell, AGS gastric cancer cell, BEL-7402 liver cancer cell, HCT-116 colorectal cancer cell, HeLa cervical cancer cell, SGC-7901 early differentiation gastric cancer cell, L-02 normal liver cell, MCF-7 breast cancer cell, and MCF-10A normal breast cell were initially purchased from American Type Culture Collection (ATCC, Manassas, VA, USA). RPMI-1640 media, Dulbecco’s modified Eagle’s medium (DMEM), and foetal bovine serum (FBS) were provided from Gibco Company (Grand Island, NY, USA). The cells were maintained in DMEM or RPMI-1640, supplemented with 10% FBS, 100 IU/mL penicillin and […] (Grand Island, NY, USA), and at 37 °C in a humidified atmosphere containing 5% CO2.
(§2) Cells were plated in 96-well plates at a density of 30–40% to ensure exponential growth throughout the experimental period, and then allowed to adhere for 1 day[21]. Next, the cells were treated with four serial concentrations (1, 10, 50, and 100 µM) of each compound. Taxol, CA-4, and CA-4P (phosphorylated form of CA-4) were used as positive controls. After 48 h incubation, MTT solution was added to each well at a final concentration of 2 mg/mL, and incubated for an additional 4 h. Next, the MTT solution was removed and 150 µL of dimethyl sulphoxide (DMSO)/well was added (Sigma-Aldrich, St Louis, MO, USA). The plates were shaken vigorously at RT to ensure complete solubilisation, and absorption at 492 nm was determined.
(§3) According to standard protocol, preliminary in vitro anti-proliferative activities of the synthesised compounds were evaluated by MTT assay, using nine human cancer cell lines (MGC-803, A549, HepG2, AGS, BEL-7402, HCT116, HeLa, SGC-7901, and MCF-7) and two normal human cell lines (L-02 and MCF-10A), and compared with those of CA-4, CA-4P, and taxol.

Data set [2] concerns MCF-10A normal breast cell. The data set is described as follows: MTT cell growth inhibition assay, MCF-10A (normal). Format: cell-based, human. The following applies: 48 h incubation, MCF-10A normal cells.
Text: as §1, §2, §3

The test system of the next data set is MCF-7 breast cancer cell. The data set is described as follows: MTT cell growth inhibition assay, MCF-7. Format: cell-based, human. The settings on record: for IC50: MTT, 48 h incubation, MCF-7.
Text: as §1, §2, §3

The next data set deals with A549 lung cancer cell. The data set is described as follows: MTT cell growth inhibition assay, A549. The format is cell-based, human. The settings on record: for IC50: MTT, 48 h incubation, A549.
Text: as §1, §2, §3

The test system of a further data set is BEL-7402 cells. The data set is described as follows: MTT cell growth inhibition assay, BEL-7402. The following applies: for IC50: MTT, 48 h incubation, Bel-7402; for SI IC50 (L-02/BEL-7402): selectivity index, IC50 (L-02)/IC50 (BEL-7402). The format is cell-based, human.
Text: as §1, §2, §3

A further data set has as its system MGC-803 cells. Kind of data set: MTT cell growth inhibition assay, MGC-803. The format is cell-based, human. The following applies: for IC50: MTT, 48 h incubation, MGC-803; for SI IC50 (L-02/MGC-803): selectivity index, IC50 (L-02)/IC50 (MGC-803).
Text: as §1, §2, §3

Data set [3] concerns SGC-7901 early differentiation gastric cancer cell. The data set is described as follows: MTT cell growth inhibition assay, SGC-7901. The format is cell-based, human. The settings on record: 48 h incubation.
Text: as §1, §2, §3

In the next data set the test system is L-02 normal liver cell. The data set is described as follows: MTT cell growth inhibition assay, L-02 (normal). Format: cell-based, human. The following applies: 48 h incubation, L-02 normal cells.
Text: as §1, §2, §3

For another data set, the system named is AGS cells. The data set is described as follows: MTT cell growth inhibition assay, AGS. The format is cell-based, human. The following applies: for IC50: MTT, 48 h incubation, AGS; for SI IC50 (L-02/AGS): selectivity index, IC50 (L-02)/IC50 (AGS).
Text: as §1, §2, §3

Another data set has as its system HCT116 cells. The data set is described as follows: MTT cell growth inhibition assay, HCT116. Format: cell-based, human. The following applies: for IC50: MTT, 48 h incubation, HCT116.
Text: as §1, §2, §3

The subject of another data set is HepG2 hepatoma cell. Kind of data set: MTT cell growth inhibition assay, HepG-2. Format: cell-based, human. The following applies: MTT, 48 h incubation, HepG-2.
Text: as §1, §2, §3

The mark [4] stands for this setting: selectivity index, IC50 (MCF-10A)/IC50 (MCF-7).
Where [5] appears, read: selectivity index, IC50 (L-02)/IC50 (HCT116).

As a reminder, the IC50 is the concentration needed to halve the response being measured. A higher IC50 goes with weaker potency. Broadly, the melting point is the temperature of the solid-liquid transition.

Molecules are shown by their SMILES. Read-outs that look alike come from different tables or passages of the source.

Regarding `COc1ccc(/C=C\c2cc(OC)c(OC)c(OC)c2)cc1O` [CA-4, (Z)-2-methoxy-5–(3,4,5-trimethoxystyryl) phenol, reference compound], the IC50 in [1] (Homo sapiens) is greater than 100 µM; in data set [2] (Homo sapiens), 3.23 ± 1.21 µM; in the data set on MCF-7 breast cancer cell (Homo sapiens, MCF7), 0.22 ± 0.09 µM; in the data set with A549 lung cancer cell (Homo sapiens), greater than 100 µM; with BEL-7402 cells (Homo sapiens) it was 2.02 ± 0.03 µM; in the data set on MGC-803 cells (Homo sapiens, MGC-803, 48 h), 0.06 ± 0.02 µM. For the same compound, the IC50 in [3] (Homo sapiens) is 0.3 µM; in the data set with L-02 normal liver cell (Homo sapiens), 1.1 ± 0.03 µM; in the data set with AGS cells (Homo sapiens) it was 3.42 ± 0.03 µM; with HCT116 cells (Homo sapiens, HCT-116), 0.16 µM; in the data set with HepG2 hepatoma cell (Homo sapiens, HepG2), greater than 100 µM. Further, the “SI IC50 (MCF-10A/MCF-7)” value in the data set on MCF-7 breast cancer cell is greater than 14.6. For the same compound, in the data set with HCT116 cells, the “SI IC50 (L-02/HCT116)” value is recorded as greater than 6.8.
With `COc1ccc(/C=C\c2cc(OC)c(OC)c(OC)c2)cc1OP(=O)(O)O` [CA-4P, reference compound], the concentration for half-maximal inhibition (IC50) in [1] was greater than 100 µM; in data set [2] it was 14.6 ± 1.36 µM; with MCF-7 breast cancer cell it was 0.48 ± 0.25 µM; in the data set with A549 lung cancer cell, greater than 100 µM; in the data set with BEL-7402 cells it was 5.45 ± 2.04 µM; with MGC-803 cells it was 0.03 ± 0.02 µM. In addition, the half-maximal inhibitory concentration (IC50) in data set [3] is 0.12 ± 0.03 µM; with L-02 normal liver cell, 2.67 ± 0.61 µM; with AGS cells, 4.73 ± 0.22 µM; in the data set with HCT116 cells it was 0.59 ± 0.22 µM; in the data set on HepG2 hepatoma cell, greater than 100 µM. Besides, the “SI IC50 (MCF-10A/MCF-7)” value with MCF-7 breast cancer cell (setting [4]) is reported as greater than 30.3. Moreover, the “SI IC50 (L-02/MGC-803)” value in the data set with MGC-803 cells was greater than 89.0. Moreover, the “SI IC50 (L-02/HCT116)” value with HCT116 cells (setting [5]) is greater than 4.5.
`COc1ccc(/C=C(\C#N)c2cc(OC)c(OC)c(OC)c2)cc1` [Compound 6d, (Z)-3-(4-Methoxyphenyl)-2-(3,4,5-trimethoxyphenyl)acrylonitrile] showed a melting point of 156 to 158 °C. In [1] (Homo sapiens), this compound yielded a 50% inhibitory concentration (IC50) greater than 100 µM. In [2] (Homo sapiens), this compound showed a half-inhibitory concentration (IC50) of 3.07 ± 0.18 µM. The IC50 in the data set on MCF-7 breast cancer cell (Homo sapiens, MCF7) was found to be 16.7 ± 4.77 µM. Besides, in the data set with A549 lung cancer cell (Homo sapiens), the IC50 was greater than 100 µM. Further, the half-inhibitory concentration (IC50) in the data set with BEL-7402 cells (Homo sapiens) was found to be 0.75 ± 0.21 µM. Further, the “SI IC50 (L-02/BEL-7402)” value in the data set with BEL-7402 cells is listed as greater than 5.5. The IC50 with MGC-803 cells (Homo sapiens, MGC-803, 48 h) worked out at 6.18 ± 0.36 µM. Also, the IC50 in [3] (Homo sapiens) was greater than 100 µM. Moreover, half-maximal inhibition in the data set on L-02 normal liver cell (Homo sapiens) (IC50) was put at 4.15 ± 4.16 µM. Moreover, in the data set on AGS cells (Homo sapiens), half-maximal inhibition (IC50) was put at 0.05 ± 0.003 µM. This compound also had an IC50 with HCT116 cells (Homo sapiens, HCT-116) of 1.51 ± 0.05 µM. Further, the “SI IC50 (L-02/HCT116)” value with HCT116 cells (setting [5]) was greater than 2.7. In addition, the half-inhibitory concentration (IC50) in the data set with HepG2 hepatoma cell (Homo sapiens, HepG2) is greater than 100 µM.
In the case of `COc1cc(/C(C#N)=C/c2ccc(C(C)C)cc2)cc(OC)c1OC` [Compound 6f, (Z)-3-(4-Isopropylphenyl)-2-(3,4,5-trimethoxyphenyl)acrylonitrile], the melting point is 156 to 158 °C. The compound further had an IC50 in [1] (Homo sapiens) greater than 100 µM. Half-maximal inhibition in [2] (Homo sapiens) (IC50) required 5.79 ± 0.48 µM. This compound came in with an IC50 in the data set on MCF-7 breast cancer cell (Homo sapiens, MCF7) of 4.37 ± 2.8 µM. Moreover, in the data set with MCF-7 breast cancer cell (setting [4]), the “SI IC50 (MCF-10A/MCF-7)” value is reported as greater than 1.3. In the data set with A549 lung cancer cell (Homo sapiens), this compound gave a half-maximal inhibitory concentration (IC50) of 36.62 ± 0.134 µM. Further, the “SI IC50 (L-02/A549)” value in the data set on A549 lung cancer cell (selectivity index, IC50 (L-02)/IC50 (A549)) was greater than 2.7. In addition, the IC50 in the data set with BEL-7402 cells (Homo sapiens) is 0.72 ± 0.01 µM. Also, in the data set with BEL-7402 cells, the “SI IC50 (L-02/BEL-7402)” value is given as greater than 138.8. Also, in the data set with MGC-803 cells (Homo sapiens, MGC-803, 48 h), the 50% inhibitory concentration (IC50) was found to be 7.21 ± 3.65 µM. Besides, the “SI IC50 (L-02/MGC-803)” value in the data set with MGC-803 cells was greater than 13.8. In data set [3] (Homo sapiens), this compound returned a half-inhibitory concentration (IC50) greater than 100 µM. Also, the IC50 in the data set with L-02 normal liver cell (Homo sapiens) is greater than 100 µM. In the data set with AGS cells (Homo sapiens), the IC50 was determined as 1.33 ± 0.15 µM. For the same compound, in the data set with AGS cells, the “SI IC50 (L-02/AGS)” value is reported as greater than 75.1. This compound came in with an IC50 in the data set with HCT116 cells (Homo sapiens, HCT-116) of 0.17 ± 0.1 µM. Moreover, the “SI IC50 (L-02/HCT116)” value in the data set with HCT116 cells (setting [5]) is reported as greater than 588.2. In the data set with HepG2 hepatoma cell (Homo sapiens, HepG2), this compound had an IC50 greater than 100 µM.
For the compound `CCc1ccc(/C=C(\C#N)c2cc(OC)c(OC)c(OC)c2)cc1` [Compound 6g, (Z)-3-(4-Ethylphenyl)-2-(3,4,5-trimethoxyphenyl)acrylonitrile], the melting point was in the range of 76 to 78 °C. In data set [1] (Homo sapiens), this compound gave an IC50 greater than 100 µM. In data set [2] (Homo sapiens), this compound returned a half-maximal inhibitory concentration (IC50) of 1.19 ± 0.08 µM. Further, the IC50 in the data set on MCF-7 breast cancer cell (Homo sapiens, MCF7) was greater than 100 µM. In the data set on A549 lung cancer cell (Homo sapiens), this compound came in with a 50% inhibitory concentration (IC50) greater than 100 µM. In the data set with BEL-7402 cells (Homo sapiens), the half-maximal inhibitory concentration (IC50) was found to be 0.65 ± 0.05 µM. Also, the “SI IC50 (L-02/BEL-7402)” value in the data set with BEL-7402 cells is on record as greater than 153.8. Also, the IC50 in the data set on MGC-803 cells (Homo sapiens, MGC-803, 48 h) lay within 0.01 to 7.21 µM. Further, the half-maximal inhibitory concentration (IC50) in the data set with MGC-803 cells was less than 0.01 µM. The same compound came in with a half-maximal inhibitory concentration (IC50) in [3] (Homo sapiens) greater than 100 µM. In addition, in the data set with L-02 normal liver cell (Homo sapiens), the half-inhibitory concentration (IC50) was greater than 100 µM. For the same compound, the midpoint of inhibition in the data set on AGS cells (Homo sapiens), the IC50, lay at 4.38 ± 2.04 µM. Moreover, in the data set with AGS cells, the “SI IC50 (L-02/AGS)” value is given as greater than 22.8. The compound also gave an IC50 in the data set with HCT116 cells (Homo sapiens, HCT-116) of 0.34 ± 0.01 µM. Also, the “SI IC50 (L-02/HCT116)” value in the data set with HCT116 cells (setting [5]) is on record as greater than 294.1. In the data set with HepG2 hepatoma cell (Homo sapiens, HepG2), this compound displayed a half-inhibitory concentration (IC50) greater than 100 µM.
